Results from article PMC7156724, “Potent BRD4 inhibitor suppresses cancer cell-macrophage interaction” (Nature Communications, 2020).
Values joined by “and” are separate entries in the source; they are usually repeats but may differ in a detail not shown here. Identical values can stand only once.

Legend:
[1] = Metabolic stability assay, monkey liver microsomes; settings: in % (unit assumed)
Experimental: (§1) 7. Metabolic stability assay. The metabolic profile of NHWD-870 was determined using mouse, rat, dog, monkey, and human liver microsomes using the protocols […]
(§2) No. Compound ID Exat Mass Stock Conc.
(§3) 1) 100 mM potassium phosphate buffer, PH7.4; 2) 10mM MgCI2
(§4) 1) Intermediate solution: Dilute 5 μL of compound or control from stock solution (10 mM) with 45 uL DMSO,then mixed with 450 μL 1:1 Methanol/Water (Conc.: 10 0 […]
(§5) 2) Working solution: Dilute 50 μL from intermediate solution with 450 μL 100 mM potassium phosphate buffer (Conc.: 10 μM, 4.5%MeOH)
(§6) (3) NADPH regenerating system (final Isocitric dehydrogenase conc.= 1 unit/mL at […]
(§7) 1) β-Nicotinamide adenine dinucleotide phosphate, Vendor: sigma Cat. No. N0505
(§8) 2) Isocitric acid, Vendor: Sigma Cat. No. I1252
(§9) 3) Isocitric dehydrogenase, Vendor: sigma Cat. No. I2002
(§10) (4) Liver microsome solution preparation (final concentration o f 0.5 mg protein/mL) […]
(§11) Cold ACN including 100 ng/mL Tolbutamide and 100 ng/mL Labetalol as internal […]
(§12) 1) Add 10 μL compound or control working solution/well to all plates (T0, T5, T10, T20, T30, T60, NCF60) except matrix blank.
(§13) 2) Dispense 680 μL/well microsome solution to 96-well plate as reserv oir according to […]
(§14) plate map. Then add 80 μL/well to every plate by Apricot, incubate the mixture of microsome solution and compound at 37℃ for about 10 min.
(§15) 3) Add 10 μL 100 mM potassium phosphate buffer/well to NCF60, incubate at 37℃, […]
(§16) 4) After pre-warming, dispense 90 μL/well NADPH regenerating system to 96-well plate as reservoir according to the plate map. Then add 10 μL/well to every plate by Apricot to start reaction.
(§17) 5) Incubate at 37℃, start timer 2.
(§18) 6) Add 300 (μL/well) stop solution (cold in 4℃, including 100 ng/mL Tolbutamide and 100 ng/mL Labetalol) to terminate the reaction.
(§19) 7) The sampling plates are shaked for approx 10 min.
(§20) 8) Samples are centrifuged at 4000 rpm for 20 min under 4℃.
(§21) 9) While centrifuging, load 8×new 96-well plate with 300 μL HPLC water, then transfer 100 μL supernatant, mixed for LC/MS/MS.
(§22) Use equation of first order kinetics to calculate t1/2 and Clin t(mic): […]
(§23) Equation of first order kinetics: […]

[2] = Metabolic stability assay, dog liver microsomes; settings: in % (unit assumed)
Experimental: as §1, §2, §3, §4, §5, §6, §7, §8, §9, §10, §11, §12, §13, §14, §15, §16, §17, §18, §19, §20, §21, §22, §23

[3] = Metabolic stability assay, rat liver microsomes; settings: in % (unit assumed)
Experimental: as §1, §2, §3, §4, §5, §6, §7, §8, §9, §10, §11, §12, §13, §14, §15, §16, §17, §18, §19, §20, §21, §22, §23

[4] = Metabolic stability assay, human liver microsomes; settings: in % (unit assumed)
Experimental: as §1, §2, §3, §4, §5, §6, §7, §8, §9, §10, §11, §12, §13, §14, §15, §16, §17, §18, §19, §20, §21, §22, §23

A375 human melanoma = A375 human melanoma xenograft tumor growth; format: in vivo, mouse; settings: Fig.3e, 5 Days on, 2 Days off / week x3, individual animals
Text: PO, oral administration; QD, once daily; BID, twice daily. b–d Tumor growth curves for A2780 ovarian tumor (n = 5) (b), TMD8 large B cell lymphoma (n = 6) (c), and B16F10 melanoma (n = 5) (d) bearing mice treated with the indicated compounds once daily for 11-21 days. e, f Tumor growth curves for A375 melanoma (n = 6) (e), and patient-derived xenograft (PDX) of melanoma (n = 5) (f) bearing mice treated with the indicated compounds once daily (5 days on, 2 days off) for 21 days. For d–f, NHWD-870 used is NHWD-870-HCl synthesized using Suzuki coupling route. Data are presented as mean ± SEM in (a, b, d, f) and mean + SEM in (c, e). p values were calculated using two-tailed, unpaired t tests. *p < 0.05; **p < 0.01; ***p < 0.001. Source data are provided as a Source Data file.
4–6 weeks old female BALB/c nude mice were used for most experiments, with the exception of 6–8 weeks old female C57BL/6 mice were used for B16F10 experiments, and 6–8 weeks old male BALB/c nude mice and SD rats were used for pharmacokinetic experiments. All animals were purchased from Shanghai SIPPR-Bk Lab Animal Co., Ltd. All animals were housed under a regimen of 12 h light/12 h dark cycles and specific pathogen-free conditions. 5×10^6 NCI-H526, ES-2, MDA-MB231, A2780, A375, B16F10, and TMD-8 cells (0.1 ml) were injected subcutaneously into female nude mice. The melanoma patient-derived xenograft model was derived from a human melanoma sample (BRAF, NARS and NF1 wild type, and p53 mutant) removed from a patient in Xiangya Hospital. Surgically removed tumor fragments were implanted subcutaneously into female NSG mice. When the tumors grew to ~1000 mm^3, they were harvested and cryopreserved or immediately re-implanted for expansion or experiments. Mouse body weight and tumor sizes were measured every 3 days. Once the tumors grew to 150–200 mm^3, mice were treated with the compounds as described in the Figures. 1 × 10^6 A2780 cells (1 ml) were injected into the abdominal cavity of nude mice. Ascitic volume and tumor weight were measured by an electronic balance. All the procedures were evaluated and approved by the Institutional Animal Care and Use Committee of Central South University and Yale University. […]
We apologize for not clearly labeling the experiments using compounds synthesized using Suzuki coupling method. In the revised manuscript, we modified the text to clearly mark the animal models in Fig 3d-f were tested using NHWD-870 synthesized using Suzuki […]
compared the activity of NHWD-870 synthesized using Stille coupling route with the NHWD-870 synthesized from Suzuki coupling route (Reviewer Figure 1). […]
activity and possible toxicity were identical.
Reviewer Figure 1 NHWD-870 synthesized through Stille or Suzuki route has similar properties in vivo. Tumor bearing mice were treated with 2mg/kg of the indicated compounds, orally administrated once daily for 21 days. Shown are tumor growth curves (a) and body weight change (b) for A375 melanoma bearing mice. […]
986158 in terms of potency, but apart from with the A375 melanocyte cell line, the advance seems relatively moderate. With such similar compounds, the pharmacokinetic properties and ability to accumulate at the desired site is often more important. Figure S6d (prev. Fig. 3d) in the previous

With `C[C@]12CC[C@H]3[C@@H](CCC4=CC(=O)CC[C@@]43C)[C@@H]1CC[C@@H]2O` [Testosterone] the “Remaining in Monkey liver microsomes (Sup Fig.6d)” value (shortened to “Remaining … (Sup Fig.6d)”) ([1]; time 0) was 100, the “Remaining … (Sup Fig.6d)” value ([1]; time 5) was 72.293 and the “Remaining … (Sup Fig.6d)” value ([1]; time 10) was 57.852. The “Remaining … (Sup Fig.6d)” value ([1]; time 20) was 51.22, the “Remaining … (Sup Fig.6d)” value ([1]; time 30) was 37.184 and the “Remaining … (Sup Fig.6d)” value ([1]; time 60) was 14.336. The “Remaining in Dog liver microsomes (Sup Fig.6c)” value (from here on “Remaining … (Sup Fig.6c)”) ([2]; time 0) was 100, the “Remaining … (Sup Fig.6c)” value ([2]; time 5) was 51.913 and the “Remaining … (Sup Fig.6c)” value ([2]; time 10) was 27.194. The “Remaining … (Sup Fig.6c)” value ([2]; time 20) was 14.015, the “Remaining … (Sup Fig.6c)” value ([2]; time 30) was 6.615 and the “Remaining … (Sup Fig.6c)” value ([2]; time 60) was 0. The “Remaining in rat liver microsomes (Sup Fig.6b)” value (“Remaining … (Sup Fig.6b)” below) ([3]; time 0) was 100, the “Remaining … (Sup Fig.6b)” value ([3]; time 5) was 0.549 and the “Remaining … (Sup Fig.6b)” value ([3]; time 10) was 0. For the same compound, the “Remaining … (Sup Fig.6b)” value ([3]; time 20) was 0, the “Remaining … (Sup Fig.6b)” value ([3]; time 30) was 0 and the “Remaining … (Sup Fig.6b)” value ([3]; time 60) was 0. For the same compound, the “Remaining in Human liver microsomes (Sup Fig.6e)” value (shortened to “Remaining … (Sup Fig.6e)”) ([4]; time 0) was 100, the “Remaining … (Sup Fig.6e)” value ([4]; time 5) was 82.349 and the “Remaining … (Sup Fig.6e)” value ([4]; time 10) was 75.006. For the same compound, the “Remaining … (Sup Fig.6e)” value ([4]; time 20) was 64.528, the “Remaining … (Sup Fig.6e)” value ([4]; time 30) was 50.522 and the “Remaining … (Sup Fig.6e)” value ([4]; time 60) was 21.403.

In the case of `Cc1nnn(C)c1-c1cnc2c3c4cnn(C)c4ccc3n([C@H](c3ccccc3)C3CCOCC3)c2c1.Cl` [NHWD-870-HCl], the “Tumor volume” value (A375 human melanoma; 2 mg/kg PO QD, day 0) is reported as 124.032 mm3 and 120.497 mm3 and 183.857 mm3 and 155.659 mm3 and 140.462 mm3 and 187.897 mm3, the “Tumor volume” value (A375 human melanoma; 2 mg/kg PO QD, day 4) is reported as 125.079 mm3 and 148.629 mm3 and 180.193 mm3 and 187.061 mm3 and 149.381 mm3 and 207.594 mm3 and the “Tumor volume” value (A375 human melanoma; 2 mg/kg PO QD, day 7) is reported as 119.983 mm3 and 238.282 mm3 and 335.392 mm3 and 359 mm3 and 146.599 mm3 and 237.29 mm3. The “Tumor volume” value (A375 human melanoma; 2 mg/kg PO QD, day 11) was 204.214 mm3 and 361.187 mm3 and 438.176 mm3 and 511.029 mm3 and 273.013 mm3 and 310.165 mm3, the “Tumor volume” value (A375 human melanoma; 2 mg/kg PO QD, day 14) was 396.493 mm3 and 659.962 mm3 and 783.286 mm3 and 668.171 mm3 and 489.424 mm3 and 499.77 mm3 and the “Tumor volume” value (A375 human melanoma; 2 mg/kg PO QD, day 18) was 580.818 mm3 and 828.001 mm3 and 941.933 mm3 and 817.427 mm3 and 615.591 mm3 and 523.033 mm3. The “Tumor volume” value (A375 human melanoma; 2 mg/kg PO QD, day 21) was 932.477 mm3 and 934.695 mm3 and 1116.85 mm3 and 993.943 mm3 and 830.361 mm3 and 759.477 mm3, the “Tumor volume” value (A375 human melanoma; 3 mg/kg PO QD, day 0) was 187.407 mm3 and 129.823 mm3 and 123.552 mm3 and 162.978 mm3 and 197.865 mm3 and 111.638 mm3 and the “Tumor volume” value (A375 human melanoma; 3 mg/kg PO QD, day 4) was 180.115 mm3 and 100.661 mm3 and 101.808 mm3 and 169.071 mm3 and 201.772 mm3 and 81.9823 mm3. The “Tumor volume” value (A375 human melanoma; 3 mg/kg PO QD, day 7) was 354.946 mm3 and 108.136 mm3 and 132.2 mm3 and 290.979 mm3 and 435.513 mm3 and 83.7227 mm3, the “Tumor volume” value (A375 human melanoma; 3 mg/kg PO QD, day 11) was 333.816 mm3 and 123.623 mm3 and 211.51 mm3 and 368.326 mm3 and 511.795 mm3 and 108.132 mm3 and the “Tumor volume” value (A375 human melanoma; 3 mg/kg PO QD, day 14) was 869.938 mm3 and 282.077 mm3 and 467.223 mm3 and 627.735 mm3 and 985.207 mm3 and 153.932 mm3. For the same compound, the “Tumor volume” value (A375 human melanoma; 3 mg/kg PO QD, day 18) was 947.479 mm3 and 354.935 mm3 and 602.443 mm3 and 703.598 mm3 and 1037.76 mm3 and 172.297 mm3, the “Tumor volume” value (A375 human melanoma; 3 mg/kg PO QD, day 21) was 1152.24 mm3 and 633.313 mm3 and 890.897 mm3 and 1097.51 mm3 and 1306.53 mm3 and 328.738 mm3 and the “Tumor volume” value (A375 human melanoma; Group 4, 1 mg/kg PO QD, day 0) was 129.244 mm3 and 160.038 mm3 and 169.001 mm3. The “Tumor volume” value (A375 human melanoma; Group 4, 1 mg/kg PO QD, day 4) was 194.913 mm3 and 185.189 mm3, the “Tumor volume” value (A375 human melanoma; Group 4, 1 mg/kg PO QD, day 7) was 287.4 mm3 and 179.028 mm3 and the “Tumor volume” value (A375 human melanoma; Group 4, 1 mg/kg PO QD, day 11) was 471.867 mm3 and 223.232 mm3. For the same compound, the “Tumor volume” value (A375 human melanoma; Group 4, 1 mg/kg PO QD, day 14) was 761.481 mm3 and 416.901 mm3, the “Tumor volume” value (A375 human melanoma; Group 4, 1 mg/kg PO QD, day 18) was 1193.81 mm3 and 502.306 mm3 and the “Tumor volume” value (A375 human melanoma; Group 4, 1 mg/kg PO QD, day 21) was 1260.17 mm3 and 803.56 mm3 and 2033.79 mm3.
